Assay [1] has as its target T1, Arp3 (subunit of the Arp2/3 complex) (Homo sapiens, UniProt P61158).
T1 construct: gene ACTR3; recombinant human Arp2/3 iso-complex containing Arp3/ArpC1A/C5L; with Arp2/3 complex (Arp2, ArpC1A, ArpC2, ArpC3, ArpC4, ArpC5L)
The assay is described as follows: TIRF actin branching rate with GST-N-WASP-VCA-activated recombinant Arp2/[…]; also pyrene actin polymerisation. Type of assay: biochemical.

In assay [2] the target is T2, Arp2 (subunit of the Arp2/3 complex) (Homo sapiens, UniProt P61158+P61160).
T2 construct: gene ACTR2; recombinant human Arp2/3 iso-complex containing Arp3/ArpC1A/C5L; with Arp3 (ACTR3, P61158), within the Arp2/3 complex
Described as above. Type of assay: biochemical.

Our source for the IC50 values is article PMC11316031 (EMBO Reports, 2024).

`COc1ccc(N2C(=O)CSC2c2cccc(Br)c2)c(OC)c1` (centres unmarked) [CK-869]: the IC50 in assay [1] is 0.86 µM.

As to `Cc1[nH]c2ccccc2c1CCNC(=O)c1ccccc1F` [CK-666], in assay [2], the half-inhibitory concentration (IC50) was determined as 19.9 µM.
